From US20260144879A1, “ANTI-VIRAL AND HEPATIC-TARGETED DRUGS” (AI-BIOPHARMA, priority 2019, published 2026) come the findings set out here.

For test [1], the system named is HBV (genotype D, serotype ayw, Galibert's strain). Put plainly: Quantification of virion associated secreted HBV DNA in supernatant of HBV-infected Primary Human Hepatocytes (PHH) by qPCR, % of replication vs DMSO. The test is classed as cell-based, hepatitis B virus. Particulars: Hepatitis B virus, Hepatocyte, 168 h, 1 μM compound, 7 days treatment, DMSO = 100%, (*) n = 1, read-out: PHH HBV % of replication at 1 μM compared to DMSO. How it is done: (§1) From Methods in Lucifora J. et al. (Direct antiviral properties of TLR ligands against HBV replication in immune-competent hepatocytes, Science Scientific Reports, 2018, 8:5390): • 1) HepaRG cells were cultured, as described previously by Gripon P. et al. (Infection of a human hepatoma cell line by hepatitis B virus. Proc Natl Acad Sci USA, 2002, 99, p 15655-15660) on pages 15655 and 15656, in Williams E medium supplemented with 10% fetal calf serum, 50 U penicillin/streptomycin (Gibco-Invitrogen) ml^−1, […] ml^−1 and 5×10^−7 M hydrocortisone hemisuccinate (Roche Diagnostics and Boehringer Mannheim, respectively). The cell cultures were maintained in a 5% CO2 atmosphere at 37° C. During the proliferation phase, culture medium was renewed every 2 days. For differentiation and infection, cells were maintained for 2 weeks in standard medium and then for at least 2 more weeks in medium supplemented with 1.8-2.0% DMSO (Sigma). • 2) Primary Human Hepatocytes (PHH) were freshly prepared from human liver resection as previously described by Lecluyse, E. L. & Alexandre, E. (Isolation and culture of primary hepatocytes from resected human liver tissue. Methods Mol Biol, 2010, 640, p 57-82, https://doi.org/10.1007/978-1-60761-688-7_3) on page 63 paragraph 3. “Methods” from section 3.1. through 3.6.2. page 77. All experimental procedures were conducted in conformity with French laws and regulations and were approved by the National Ethics Committee. • 3) Cell viability was measured by both neutral red and MTS (CellTiter 96 Aqueous One Solution cell proliferation assay; Promega) tests. • 4) HBV inoculum (genotype D, serotype ayw, Galibert's strain referred as NC_003977.2 at NCBI) was prepared from HepAD38 (see Ladner, S. K. et al., Inducible expression of human hepatitis B virus (HBV) in stably transfected hepatoblastoma cells: a novel system for screening potential inhibitors of HBV replication. Antimicrob Agents Chemother, 1997, 41, p 1715-1720) supernatants by polyethylene-glycol-MW-8000 (PEG8000, SIGMA) precipitation (8% final) as previously described by Luangsay, S. et al. (Early inhibition of hepatocyte innate responses by hepatitis B virus. J Hepatol, 2015, 63, p 1314-1322, https://doi.org/10.1016/j.jhep.2015.07.014).
(§2) Viral stocks with titer reaching at least 1×10^10 viral genome equivalent (vge)/mL were tested endotoxin free.
(§3) Differentiated HepaRG (dHepaRG) or PHH were infected by HBV at a multiplicity of infection of 100-200 vge/cell in culture medium containing 4% PEG 8000 (Sigma) for 16 h at 37° C. in 12- or six-well plates. At the end of the incubation period, cells were washed once with medium and then cultured in Williams E medium containing DMSO as indicated. In general infection was left for 7 days before any treatment was started, to allow replication reaching its maximum. • 5) Infected cell treatment with compounds of interest: • 5a: After 7 days of infection with the virus (day 0 to day 7), the dHepaRG cells were treated (3 treatments: day 7, day 10 and day 12) with a […] of the tested compound (diluted with sterile water from a 10 mM stock DMSO solution) or DMSO as reference negative control for 7 more days. • 5b: After 4 days of infection with the virus (day 0 to day 4), the PHH cells were treated (3 treatments: day 4, day 7 and day 9) with a […] of the tested compound (diluted with sterile water from a 10 mM stock DMSO solution) for 7 more days. • 6) Quantification of virion associated secreted HBV DNA in cell culture supernatant:
(§4) At the end of the experiment (7 days treatment) the supernatant of infected and treated cells (either dHepaRG or PHH or others) is collected. It is diluted 1/4 into sterile water (molecular biology quality) then treated for 30 minutes with RNAse (10 unit) and DNAse (10 unit) to remove non encapsidated material. […]
A general note: Quantitative PCR measures a nucleic acid by following its amplification.

For test [2] the test system is unchanged. As to the kind of experiment: Quantification of virion associated secreted HBV DNA in supernatant of HBV-infected differentiated HepaRG (dHepaRG) cells by qPCR, % of replication vs DMSO. The test is classed as cell-based, hepatitis B virus. Particulars: Hepatitis B virus, HepaRG, 168 h, 1 μM compound, 7 days treatment, DMSO = 100%, read-out: dHepaRG HBV % of replication at 1 μM compared to DMSO. How it is done:
as §1, §2, §3, §4

For the compound `CCOC(=O)CC1COP(=O)(CO[C@H](C)Cn2cnc3c(N(C(C)=O)C(C)=O)ncnc32)OC1` (stereo partly drawn) [Example 14, (R)-ethyl 2-(2-(((1-(6-(N-acetylacetamido)-9H-purin-9-yl)propan-2-yl)oxy)methyl)-2-oxo-1,3,2-dioxaphosphinan-5-yl)acetate], the activity at 1 µM in test [1] and in test [2] was 50 to 80% in each case.

Turning to `CCOC(=O)CC1COP(=O)(CO[C@H](C)Cn2cnc3c(NC(=O)CC)ncnc32)OC1` (stereo partly drawn) [Example 15, (R)-ethyl 2-(2-oxo-2-(((1-(6-propionamido-9H-purin-9-yl)propan-2-yl)oxy)methyl)-1,3,2-dioxaphosphinan-5-yl)acetate], the activity at 1 µM in test [1] and in test [2] was at most 30% each time.

Turning to `CCOC(=O)CC1COP(=O)(CO[C@H](C)Cn2cnc3c(NC(=O)C(C)C)ncnc32)OC1` (stereo partly drawn) [Example 16, (R)-ethyl 2-(2-(((1-(6-isobutyramido-9H-purin-9-yl)propan-2-yl)oxy)methyl)-2-oxo-1,3,2-dioxaphosphinan-5-yl)acetate], the activity at 1 µM in test [1] and in test [2] was at most 30% each time.

As to `CCOC(=O)CC1COP(=O)(CO[C@H](C)Cn2cnc3c(NC(=O)CC(C)C)ncnc32)OC1` (stereo partly drawn) [Example 17, (R)-ethyl 2-(2-(((1-(6-(3-methylbutanamido)-9H-purin-9-yl)propan-2-yl)oxy)methyl)-2-oxo-1,3,2-dioxaphosphinan-5-yl)acetate], the activity at 1 µM in test [1] is at most 30%; in test [2] it was 30 to 50%.

On to `CCOC(=O)CC1COP(=O)(CO[C@H](C)Cn2cnc3c(NC(=O)c4ccccc4)ncnc32)OC1` (stereo partly drawn) [Example 19, (R)-ethyl 2-(2-(((1-(6-benzamido-9H-purin-9-yl)propan-2-yl)oxy)methyl)-2-oxo-1,3,2-dioxaphosphinan-5-yl)acetate], for which the activity at 1 µM in test [1] and in test [2] was at most 30% throughout.

Consider `CC(C)OC(=O)CC1COP(=O)(CO[C@H](C)Cn2cnc3c(NC(=O)C(C)C)ncnc32)OC1` (stereo partly drawn) [Example 21a, (R)-isopropyl 2-(2-(((1-(6-isobutyramido-9H-purin-9-yl)propan-2-yl)oxy)methyl)-2-oxido-1,3,2-dioxaphosphinan-5-yl)acetate], for which the activity at 1 µM in test [1] and in test [2] was at most 30% each time.

In the case of `CC(C)OC(=O)CCC1COP(=O)(CO[C@H](C)Cn2cnc3c(NC(=O)c4ccccc4)ncnc32)OC1` (stereo partly drawn) [Example 25, (R)-isopropyl 3-(2-(((1-(6-benzamido-9H-purin-9-yl)propan-2-yl)oxy)methyl)-2-oxo-1,3,2-dioxaphosphinan-5-yl)propanoate], the activity at 1 µM in test [1] and in test [2] was 50 to 80% each time.
